In ChEMBL document CHEMBL5634141 (Eur J Med Chem, 2023):
pIC50: −log10 of the molar value. The source made the active and inactive calls. The rule behind the calls is not given here.

Tests used:
[1] = Clearance in ICR mouse at 2 mg/kg, iv measured after 24 hrs by LC-MS/MS analysis; type: ADME, organism-based; conditions: in vivo
NCI-H358 [2] = test: Antiproliferative activity against human NCI-H358 cells expressing KRAS G12C mutant assessed as reduction of cell growth by measuring fold decrease in IC50 incubated for 72 hrs in presence of SHP099 by CCK-8 assay; type: functional
NCI-H358 [3] = test: Induction of apoptosis in human NCI-H358 cells assessed as early apoptotic cells at 30 nM incubated for 48 hrs by Annexin V-FITC staining based flow cytometry analysis (reference value: 1.60 %); type: functional
MIA PaCa-2 [4] = test: Inhibition of cell migration in human MIA PaCa-2 cells incubated for 12 hrs by wound healing assay; type: functional, cell-based; conditions: dose 30-300 nM
MIA PaCa-2 [5] = test: Antitumor activity against human MIA PaCa-2 cells xenografted in BALB/c nude mouse assessed as reduction in percentage of Ki67-positive cells at 10 to 30 mg/kg, ip administered for 16 days by immunohistochemical staining analysis; type: functional, organism-based; conditions: dose 10-30 mg/kg, time 16.0 day
MIA PaCa-2 [6] = test: Antiproliferative activity against human MIA PaCa-2 cells expressing KRAS G12C mutant assessed as reduction of cell growth by measuring fold decrease in IC50 incubated for 72 hrs in presence of SHP099 by CCK-8 assay; type: functional
NCI-H23 [7] = test: Antiproliferative activity against human NCI-H23 cells expressing KRAS G12C mutant assessed as relative cell viability at 30 nM incubated for 72 hrs in presence of MK-2206 by CCK-8 assay; type: functional; conditions: read-out: Activity
MIA PaCa-2 [8] = test: Antiproliferative activity against human MIA PaCa-2 cells expressing KRAS G12C mutant assessed as inhibition of cell growth incubated for 72 hrs by CCK-8 assay; type: functional, cell-based; conditions: MIA PaCa-2, 72 h
NCI-H358 [9] = test: Antiproliferative activity against human NCI-H358 cells expressing KRAS G12C mutant assessed as inhibition of cell growth incubated for 72 hrs by CCK-8 assay; type: functional, cell-based; conditions: NCI-H358, 72 h
[10] = Toxicity in ICR mouse assessed as side effects at 30 mg/kg, ip measured after 24 hrs; type: organism-based; conditions: in vivo
NCI-H23 [11] = test: Antiproliferative activity against human NCI-H23 cells expressing KRAS G12C mutant assessed as relative cell viability at 30 nM incubated for 72 hrs in presence of crizotinib by CCK-8 assay; type: functional; conditions: read-out: Activity
[12] = tested on: von Hippel-Lindau disease tumor suppressor/GTPase KRas (Homo sapiens), P01116+P40337 [G12C]; test: PROTAC activity at VHL/KRAS G12C mutant in human NCI-H358 cells assessed as induction of protein degradation at 300 nM incubated for 24 hrs by Western blotting analysis relative to control; type: cell-based
NCI-H358 [13] = test: Induction of apoptosis in human NCI-H358 cells assessed as late apoptotic cells at 300 nM incubated for 48 hrs by Annexin V-FITC staining based flow cytometry analysis (reference value: 5.20 %); type: functional
[14] = tested on: von Hippel-Lindau disease tumor suppressor/GTPase KRas (Homo sapiens), P01116+P40337 [G12C]; test: PROTAC activity at VHL/KRAS G12C mutant in human MIA PaCa-2 cells assessed as induction of protein degradation in presence of AMG510 by Western blotting analysis; type: cell-based
[15] = tested on: von Hippel-Lindau disease tumor suppressor/GTPase KRas (Homo sapiens), P01116+P40337 [G12C]; test: PROTAC activity at VHL/KRAS G12C mutant in human NCI-H358 cells assessed as induction of protein degradation at 100 nM preincubated with AMG510 for 6 hrs followed by compound addition and measured after 48 hrs by Western blotting analysis; type: cell-based
MIA PaCa-2 [16] = test: Induction of apoptosis in human MIA PaCa-2 cells assessed as late apoptotic cells at 100 nM incubated for 48 hrs by Annexin V-FITC staining based flow cytometry analysis (reference value: 5.69 %); type: functional
NCI-H358 [17] = test: Inhibition of colony formation in human NCI-H358 cells expressing KRAS G12C mutant assessed as reduction in cell number at 30 nM incubated for 14 days in presence of SHP099 by crystal violet staining based analysis; type: functional; conditions: time 14.0 day
NCI-H23 [18] = test: Antiproliferative activity against human NCI-H23 cells expressing KRAS G12C mutant assessed as relative cell viability at 30 nM incubated for 72 hrs by CCK-8 assay; type: functional; conditions: read-out: Activity
[19] = molecular target: von Hippel-Lindau disease tumor suppressor/GTPase KRas (Homo sapiens, UniProt P01116+P40337, G12C); test: (§1) PROTAC activity at VHL/KRAS G12C mutant in human MIA PaCa-2 cells assessed as induction of protein degradation by Western blotting analysis; type: cell-based
Sequence of von Hippel-Lindau disease tumor suppressor/GTPase KRas (P01116 whole entry G12C, stated change not applied): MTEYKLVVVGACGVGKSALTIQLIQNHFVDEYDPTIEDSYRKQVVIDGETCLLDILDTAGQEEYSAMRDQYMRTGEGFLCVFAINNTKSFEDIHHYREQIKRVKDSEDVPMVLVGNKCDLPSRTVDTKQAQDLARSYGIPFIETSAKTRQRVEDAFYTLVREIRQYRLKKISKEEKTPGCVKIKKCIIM
Sequence of von Hippel-Lindau disease tumor suppressor/GTPase KRas (P40337 whole entry, stated change not applied): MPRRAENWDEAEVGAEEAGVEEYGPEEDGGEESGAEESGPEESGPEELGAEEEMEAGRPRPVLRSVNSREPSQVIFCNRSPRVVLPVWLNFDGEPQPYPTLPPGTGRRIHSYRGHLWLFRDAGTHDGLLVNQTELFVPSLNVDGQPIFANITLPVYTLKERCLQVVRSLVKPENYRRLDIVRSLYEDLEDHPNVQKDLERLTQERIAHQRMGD

[20] = tested on: von Hippel-Lindau disease tumor suppressor/GTPase KRas (Homo sapiens), P01116+P40337 [G12C]; test: as §1; type: cell-based
[21] = tested on: von Hippel-Lindau disease tumor suppressor/GTPase KRas (Homo sapiens), P01116+P40337 [G12C]; test: Protac activity at VHL/KRAS G12C mutant in human NCI-H358 cells assessed as induction of protein degradation at 100 nM preincubated with VH032 for 6 hrs followed by compound addition and measured after 48 hrs by Western blot analysis; type: cell-based
NCI-H23 [22] = test: Antiproliferative activity against human NCI-H23 cells expressing KRAS G12C mutant assessed as relative cell viability at 30 nM incubated for 72 hrs in presence of selumetinib by CCK-8 assay; type: functional; conditions: read-out: Activity
NCI-H358 [23] = test: Induction of apoptosis in human NCI-H358 cells assessed as necrotic cells at 100 nM incubated for 48 hrs by Annexin V-FITC staining based flow cytometry analysis (reference value: 1.62 %); type: functional
[24] = Toxicity in ICR mouse assessed as side effects at 2 mg/kg, iv measured after 24 hrs; type: organism-based; conditions: in vivo
NCI-H358 [25] = test: Induction of apoptosis in human NCI-H358 cells assessed as viable cells at 30 nM incubated for 48 hrs by Annexin V-FITC staining based flow cytometry analysis (reference value: 91.6 %); type: functional; conditions: read-out: Activity
NCI-H358 [26] = test: Antiproliferative activity against human NCI-H358 cells expressing KRAS G12C mutant assessed as relative cell viability at 30 nM incubated for 72 hrs in presence of naporafenib by CCK-8 assay; type: functional; conditions: read-out: Activity
NCI-H358 [27] = test: Inhibition of colony formation in human NCI-H358 cells expressing KRAS G12C mutant assessed as reduction in cell number at 30 nM incubated for 14 days in presence of linsitinib by crystal violet staining based analysis; type: functional; conditions: time 14.0 day
ASPC1 = test: Antiproliferative activity against human ASPC1 cells expressing KRAS G12D mutant assessed as inhibition of cell growth incubated for 72 hrs by CCK-8 assay; type: functional, cell-based; conditions: ASPC1, 72 h
NCI-H358 [28] = test: Antiproliferative activity against human NCI-H358 cells expressing KRAS G12C mutant assessed as relative cell viability at 30 nM incubated for 72 hrs in presence of selumetinib by CCK-8 assay; type: functional; conditions: read-out: Activity
Mus musculus = test: In vivo PROTAC activity at VHL/KRAS G12C mutant in BALB/c nude mouse xenografted with human MIA PaCa-2 cells assessed as decrease in AKT phosphorylation at 10 to 30 mg/kg, ip administered for 16 days by Western blot analysis; type: functional, organism-based; conditions: dose 10-30 mg/kg, time 16.0 day
NCI-H358 [29] = test: Antiproliferative activity against human NCI-H358 cells expressing KRAS G12C mutant assessed as reduction of cell growth by measuring fold decrease in IC50 incubated for 72 hrs in presence of Linsitinib by CCK-8 assay; type: functional
MIA PaCa-2 [30] = test: Inhibition of colony formation in human MIA PaCa-2 cells expressing KRAS G12C mutant assessed as reduction in cell number at 30 nM incubated for 14 days in presence of linsitinib by crystal violet staining based analysis; type: functional; conditions: time 14.0 day

In the case of C=CC(=O)N1CCN(c2nc(=O)n(-c3c(C)ccnc3C(C)C)c3nc(-c4c(F)cccc4OCC4CCN(CCCC(=O)N[C@H](C(=O)N5C[C@H](O)C[C@H]5C(=O)NCc5ccc(-c6scnc6C)cc5)C(C)(C)C)CC4)c(F)cc23)[C@@H](C)C1, the clearance [1] was 5.05 L/h/kg, the “fold change (FC)” value (NCI-H358 [2]) was roughly 4 and the Activity (NCI-H358 [3]) was 3.48%. The inhibition (MIA PaCa-2 [4]) was “Dose-Dependent Effect”, the Activity (MIA PaCa-2 [5]) was “Active” and the “fold change (FC)” value (MIA PaCa-2 [6]) was roughly 4. The viability at 0.03 µM (NCI-H23 [7]) was 0.44%, the pIC50 (MIA PaCa-2 [8]) was 7.35 and the pIC50 (NCI-H358 [9]) was 7.04. For the same compound, the Activity [10] was “Non-Toxic”, the viability at 0.03 µM (NCI-H23 [11]) was 0.33% and the Activity [12] was 100%. For the same compound, the Activity (NCI-H358 [13]) was 14.6%, the Activity [14] was “inactive” and the Activity [15] was “inactive”. For the same compound, the Activity (MIA PaCa-2 [16]) was 13.4%, the inhibition (NCI-H358 [17]) was “Active” and the viability at 0.03 µM (NCI-H23 [18]) was 0.85%. For the same compound, the DC50 [19] was 0.028 µM, the Activity [20] was “Dose-Dependent Effect” and the Activity [21] was “inactive”. The viability at 0.03 µM (NCI-H23 [22]) was 0.24%, the Activity (NCI-H358 [23]) was 1.12% and the Activity [24] was “Non-Toxic”. For the same compound, the viability at 0.03 µM (NCI-H358 [25]) was 89.4%, the viability at 0.03 µM (NCI-H358 [26]) was 0.36% and the inhibition (NCI-H358 [27]) was “Active”. The pIC50 (ASPC1) was less than 5.00, the viability at 0.03 µM (NCI-H358 [28]) was 0.31% and the Activity (Mus musculus) was “Active”. For the same compound, the “fold change (FC)” value (NCI-H358 [29]) was roughly 4 and the inhibition (MIA PaCa-2 [30]) was “Active”.
